{
  "source": "patent US3988316A",
  "about": "“Antibiotics sisomicin and verdamicin I and complex containing same” (Schering Corporation, priority 1975, dated 1976)",
  "key": {"[1]": {"system": "Staphylococcus aureus ATCC 6538P", "assay": "Disc plate microbiological assay", "from_the_text": "Th microbiological assay of the antibiotic substances is a disc plate assay using Staphylococcus aureus ATCC 6538P as test organism."}, "[2]": {"system": "Escherichia coli 10536", "assay": "Protective Activity in Mice", "assay_type": "in vivo", "settings": "S.C., single dose one hour after intraperitoneal infection", "procedure": "(§1) Verdamicin I was tested against four (4) species of infectious bacteria in mice and was administered as a single subcutaneous dose one (1) hour after infection via intraperitoneal injection of a lethal quantity of pathogen.\n(§2) Results obtained with gentamicin are set for comparison."}, "[3]": {"system": "Pseudomonas aeruginosa 8689", "assay": "Protective Activity in Mice", "assay_type": "in vivo", "settings": "S.C., single dose one hour after intraperitoneal infection", "procedure": "as §1, §2"}, "[4]": {"system": "Staphylococcus aureus Gray", "assay": "Protective Activity in Mice", "assay_type": "in vivo", "settings": "S.C., single dose one hour after intraperitoneal infection", "procedure": "as §1, §2"}, "[5]": {"system": "Streptococcus pyogenes C", "assay": "Protective Activity in Mice", "assay_type": "in vivo", "settings": "S.C., single dose one hour after intraperitoneal infection", "procedure": "as §1, §2"}, "[6]": {"assay": "in vivo", "settings": "mouse, iv"}, "[7]": {"assay": "pKa (Chemical and Physical Properties of Verdamicin I)", "assay_type": "physicochemical", "settings": "base", "text": "In table VI below are set forth physical properties of […] as the hydrated free nitrogen base and as the sulfuric acid addition salt (sulfate)."}, "[8]": {"system": "gram positive and gram-negative bacteria", "assay": "In vitro antibacterial activity, Verdamicin I (in words)", "assay_type": "cell-based"}, "[9]": {"system": "gram-positive and gram-negative organisms", "assay": "In vivo antibacterial activity in mice (in words)", "procedure": "as §1, §2"}},
  "note": "Counter-ions that a name gives are not always drawn.",
  "data": [
    {"compound": "CN[C@@H]1[C@@H](O)[C@@H](O[C@@H]2[C@@H](O)[C@H](O[C@H]3OC(C(C)N)=CC[C@H]3N)[C@@H](N)C[C@H]2N)OC[C@]1(C)O", "note": "(stereo partly drawn) [Verdamicin I Sulfate]", "values": [
      {"measurement": "potency against its own base as the comparison standard", "setting": "[1]; own base as comparison standard", "value": 695, "unit": "meg/mg"}
    ]},
    {"compound": "CN[C@@H]1[C@@H](O)[C@@H](O[C@@H]2[C@@H](O)[C@H](O[C@H]3OC(C(C)N)=CC[C@H]3N)[C@@H](N)C[C@H]2N)OC[C@]1(C)O", "note": "(stereo partly drawn) [Verdamicin I]", "values": [
      {"measurement": "ED50", "setting": "[2]; Escherichia coli, 10536, sc, 1 h, read-out: PD50", "value": 1.5, "unit": "mg/kg"},
      {"measurement": "ED50", "setting": "[3]; Pseudomonas aeruginosa, 8689, sc, 1 h, read-out: PD50", "value": 2, "unit": "mg/kg"},
      {"measurement": "ED50", "setting": "[4]; Staphylococcus aureus, sc, 1 h, read-out: PD50", "value": 2.5, "unit": "mg/kg"},
      {"measurement": "ED50", "setting": "[5]; Streptococcus pyogenes, sc, 1 h, read-out: PD50", "value": 1, "unit": "mg/kg"},
      {"measurement": "LD50", "setting": "[6]", "value": 75, "unit": "mg/kg"},
      {"measurement": "pKa", "setting": "[7]", "value": 8.1},
      {"measurement": "antibacterial activity in vitro", "setting": "[8]", "value": "broad spectrum of antibacterial activity"},
      {"measurement": "in vivo antibacterial activity", "setting": "[9]", "value": "potent antibacterial agent"},
      {"measurement": "dose response curve", "setting": "[1]; gentamicin assay", "value": "parallel to that of gentamicin"},
      {"measurement": "zone of inhibition", "setting": "[1]; one meg. of standard", "value": "17.0 ± 1.3", "unit": "mm"}
    ]},
    {"compound": "gentamicin [reference compound]", "values": [
      {"measurement": "PD50", "setting": "[2]", "value": 1.7, "unit": "mg/kg"},
      {"measurement": "PD50", "setting": "[3]", "value": 1.7, "unit": "mg/kg"},
      {"measurement": "PD50", "setting": "[4]", "value": 2.4, "unit": "mg/kg"},
      {"measurement": "PD50", "setting": "[5]", "value": 5.0, "unit": "mg/kg"}
    ]}
  ]
}
